In US6693216B2, “Calcium double salts” (Nutrinova Nutrition Specialties & Food Ingredients GmbH, priority 2000, dated 2004):
Like-named read-outs stand apart in the source and are kept apart here.

Key:
Details in all cases: Part II, 1 g/l in apple juice pH 4.5, 25° C.
Molds I = tested on: Molds I
Yeasts = tested on: Yeasts
Molds II = tested on: Molds II
Lactic acid bacteria = tested on: Lactic acid bacteria
Gram-negative bacteria = tested on: Gram-negative bacteria
Bacilli = tested on: Bacilli
Acetic acid bacteria = tested on: Acetic acid bacteria
Thermophilic bacilli = tested on: Thermophilic bacilli
Gram-positive bacteria = tested on: Gram-positive bacteria
Clostridia = tested on: Clostridia
[1] = 1 day after inoculation (2.2 × 10^4)
[2] = 3 days after inoculation (2.2 × 10^4)
[3] = 7 days after inoculation (2.2 × 10^4)
[4] = 14 days after inoculation (2.2 × 10^4)
[5] = 1 day after inoculation (2.6 × 10^4)
[6] = 3 days after inoculation (2.6 × 10^4)
[7] = 7 days after inoculation (2.6 × 10^4)
[8] = 14 days after inoculation (2.6 × 10^4)
[9] = 1 day after inoculation (2.5 × 10^4)
[10] = 3 days after inoculation (2.5 × 10^4)
[11] = 7 days after inoculation (2.5 × 10^4)
[12] = 14 days after inoculation (2.5 × 10^4)
[13] = 1 day after inoculation (2.7 × 10^4)
[14] = 3 days after inoculation (2.7 × 10^4)
[15] = 7 days after inoculation (2.7 × 10^4)
[16] = 14 days after inoculation (2.7 × 10^4)
[17] = 1 day after inoculation (3.3 × 10^4)
[18] = 3 days after inoculation (3.3 × 10^4)
[19] = 7 days after inoculation (3.3 × 10^4)
[20] = 14 days after inoculation (3.3 × 10^4)
[21] = 1 day after inoculation (2.8 × 10^4)
[22] = 3 days after inoculation (2.8 × 10^4)
[23] = 7 days after inoculation (2.8 × 10^4)
[24] = 14 days after inoculation (2.8 × 10^4)
[25] = 1 day after inoculation (1.3 × 10^4)
[26] = 3 days after inoculation (1.3 × 10^4)
[27] = 7 days after inoculation (1.3 × 10^4)
[28] = 14 days after inoculation (1.3 × 10^4)
[29] = 1 day after inoculation (2.1 × 10^4)
[30] = 3 days after inoculation (2.1 × 10^4)
[31] = 7 days after inoculation (2.1 × 10^4)
[32] = 14 days after inoculation (2.1 × 10^4)

Compound	Number of surviving microorganisms per g of contaminated sample, Molds I (Molds I; [1])	Number of surviving microorganisms per g of contaminated sample, Molds I (Molds I; [2])	Number of surviving microorganisms per g of contaminated sample, Molds I (Molds I; [3])	Number of surviving microorganisms per g of contaminated sample, Molds I (Molds I; [4])	Number of surviving microorganisms per g of contaminated sample, Yeasts (Yeasts; [5])	Number of surviving microorganisms per g of contaminated sample, Yeasts (Yeasts; [6])	Number of surviving microorganisms per g of contaminated sample, Yeasts (Yeasts; [7])	Number of surviving microorganisms per g of contaminated sample, Yeasts (Yeasts; [8])	Number of surviving microorganisms per g of contaminated sample, Molds II (Molds II; [9])	Number of surviving microorganisms per g of contaminated sample, Molds II (Molds II; [10])	Number of surviving microorganisms per g of contaminated sample, Molds II (Molds II; [11])	Number of surviving microorganisms per g of contaminated sample, Molds II (Molds II; [12])	Number of surviving microorganisms per g of contaminated sample, Lactic acid bacteria (Lactic acid bacteria; [13])	Number of surviving microorganisms per g of contaminated sample, Lactic acid bacteria (Lactic acid bacteria; [14])	Number of surviving microorganisms per g of contaminated sample, Lactic acid bacteria (Lactic acid bacteria; [15])	Number of surviving microorganisms per g of contaminated sample, Lactic acid bacteria (Lactic acid bacteria; [16])	Number of surviving microorganisms per g of contaminated sample, Gram-negative bacteria (Gram-negative bacteria; [13])	Number of surviving microorganisms per g of contaminated sample, Gram-negative bacteria (Gram-negative bacteria; [14])	Number of surviving microorganisms per g of contaminated sample, Gram-negative bacteria (Gram-negative bacteria; [15])	Number of surviving microorganisms per g of contaminated sample, Gram-negative bacteria (Gram-negative bacteria; [16])	further results
CC(=O)[O-].CC(=O)[O-].[Ca+2] [Calcium Acetate]	1.1 × 10^4 CFU/g	2.2 × 10^3 CFU/g	7.6 × 10^3 CFU/g	4.5 × 10^4 CFU/g	1.3 × 10^6 CFU/g	2.5 × 10^6 CFU/g	>3.0 × 10^6 CFU/g	>3.0 × 10^6 CFU/g	1.5 × 10^4 CFU/g	1.2 × 10^4 CFU/g	>1.0 × 10^5 CFU/g	3.5 × 10^4 CFU/g	5.6 × 10^5 CFU/g	>3.0 × 10^6 CFU/g	>3.0 × 10^6 CFU/g	2.4 × 10^4 CFU/g	1.7 × 10^4 CFU/g	1.3 × 10^4 CFU/g	2.2 × 10^3 CFU/g	<100 CFU/g	Number of surviving microorganisms per g of contaminated sample, Bacilli (Bacilli; [17]): 1.6 × 10^3 CFU/g; Number of surviving microorganisms per g of contaminated sample, Bacilli (Bacilli; [18]): 1.0 × 10^3 CFU/g; Number of surviving microorganisms per g of contaminated sample, Bacilli (Bacilli; [19]): 1.8 × 10^3 CFU/g; Number of surviving microorganisms per g of contaminated sample, Bacilli (Bacilli; [20]): 1.8 × 10^3 CFU/g; Number of surviving microorganisms per g of contaminated sample, Acetic acid bacteria (Acetic acid bacteria; [21]): 8.4 × 10^5 CFU/g; Number of surviving microorganisms per g of contaminated sample, Acetic acid bacteria (Acetic acid bacteria; [22]): >3.0 × 10^6 CFU/g; Number of surviving microorganisms per g of contaminated sample, Acetic acid bacteria (Acetic acid bacteria; [23]): >3.0 × 10^6 CFU/g; Number of surviving microorganisms per g of contaminated sample, Acetic acid bacteria (Acetic acid bacteria; [24]): 1.5 × 10^6 CFU/g; Number of surviving microorganisms per g of contaminated sample, Thermophilic bacilli (Thermophilic bacilli; [25]): 2.1 × 10^3 CFU/g; Number of surviving microorganisms per g of contaminated sample, Thermophilic bacilli (Thermophilic bacilli; [26]): 6.0 × 10^2 CFU/g; Number of surviving microorganisms per g of contaminated sample, Thermophilic bacilli (Thermophilic bacilli; [27]): <10 CFU/g; Number of surviving microorganisms per g of contaminated sample, Thermophilic bacilli (Thermophilic bacilli; [28]): <10 CFU/g; Number of surviving microorganisms per g of contaminated sample, Gram-positive bacteria (Gram-positive bacteria; [29]): 1.1 × 10^5 CFU/g; Number of surviving microorganisms per g of contaminated sample, Gram-positive bacteria (Gram-positive bacteria; [30]): 9.0 × 10^4 CFU/g; Number of surviving microorganisms per g of contaminated sample, Gram-positive bacteria (Gram-positive bacteria; [31]): 6.7 × 10^3 CFU/g; Number of surviving microorganisms per g of contaminated sample, Gram-positive bacteria (Gram-positive bacteria; [32]): 5.9 × 10^3 CFU/g
O=C[O-].O=C[O-].[Ca+2] [Calcium Formate]	4.1 × 10^3 CFU/g	2.9 × 10^3 CFU/g	1.9 × 10^3 CFU/g	2.6 × 10^3 CFU/g	7.4 × 10^5 CFU/g	1.0 × 10^6 CFU/g	>3.0 × 10^6 CFU/g	>3.0 × 10^6 CFU/g	1.0 × 10^4 CFU/g	1.5 × 10^3 CFU/g	>3.0 × 10^4 CFU/g	3.9 × 10^5 CFU/g	4.4 × 10^3 CFU/g	2.5 × 10^4 CFU/g	>3.0 × 10^6 CFU/g	>3.0 × 10^6 CFU/g	1.5 × 10^4 CFU/g	3.6 × 10^3 CFU/g	2.3 × 10^3 CFU/g	75 CFU/g	Number of surviving microorganisms per g of contaminated sample, Bacilli (Bacilli; [17]): 1.7 × 10^3 CFU/g; Number of surviving microorganisms per g of contaminated sample, Bacilli (Bacilli; [18]): 1.5 × 10^3 CFU/g; Number of surviving microorganisms per g of contaminated sample, Bacilli (Bacilli; [19]): 1.4 × 10^3 CFU/g; Number of surviving microorganisms per g of contaminated sample, Bacilli (Bacilli; [20]): 1.7 × 10^3 CFU/g; Number of surviving microorganisms per g of contaminated sample, Clostridia (Clostridia; 1 day after inoculation (2.9 × 10^4)): 4.0 × 10^2 CFU/g; Number of surviving microorganisms per g of contaminated sample, Clostridia (Clostridia; 3 days after inoculation (2.9 × 10^4)): 2.0 × 10^2 CFU/g; Number of surviving microorganisms per g of contaminated sample, Clostridia (Clostridia; 7 days after inoculation (2.9 × 10^4)): <100 CFU/g; Number of surviving microorganisms per g of contaminated sample, Clostridia (Clostridia; 14 days after inoculation (2.9 × 10^4)): 10 CFU/g; Number of surviving microorganisms per g of contaminated sample, Acetic acid bacteria (Acetic acid bacteria; [21]): 8.7 × 10^5 CFU/g; Number of surviving microorganisms per g of contaminated sample, Acetic acid bacteria (Acetic acid bacteria; [22]): 2.5 × 10^6 CFU/g; Number of surviving microorganisms per g of contaminated sample, Acetic acid bacteria (Acetic acid bacteria; [23]): >3.0 × 10^6 CFU/g; Number of surviving microorganisms per g of contaminated sample, Acetic acid bacteria (Acetic acid bacteria; [24]): >3.0 × 10^6 CFU/g; Number of surviving microorganisms per g of contaminated sample, Thermophilic bacilli (Thermophilic bacilli; [25]): 2.3 × 10^3 CFU/g; Number of surviving microorganisms per g of contaminated sample, Thermophilic bacilli (Thermophilic bacilli; [26]): 8.0 × 10^2 CFU/g; Number of surviving microorganisms per g of contaminated sample, Thermophilic bacilli (Thermophilic bacilli; [27]): 6.0 × 10^2 CFU/g; Number of surviving microorganisms per g of contaminated sample, Thermophilic bacilli (Thermophilic bacilli; [28]): <10 CFU/g; Number of surviving microorganisms per g of contaminated sample, Gram-positive bacteria (Gram-positive bacteria; [29]): 2.2 × 10^4 CFU/g; Number of surviving microorganisms per g of contaminated sample, Gram-positive bacteria (Gram-positive bacteria; [30]): 8.9 × 10^3 CFU/g; Number of surviving microorganisms per g of contaminated sample, Gram-positive bacteria (Gram-positive bacteria; [31]): 4.6 × 10^3 CFU/g; Number of surviving microorganisms per g of contaminated sample, Gram-positive bacteria (Gram-positive bacteria; [32]): 2.0 × 10^3 CFU/g
